According to patent US8729269B2, “Substituted piperidino phenyloxazolidinones having antimicrobial activity with improved in vivo efficacy” (Wockhardt Limited, priority 2003, dated 2014):
Converted amounts (≈) assume the structure as drawn.

Legend:
[1] = tested on: Streptococcus pyogenes 801 (SPY 801); assay: Minimum Inhibitory Concentration (MIC) determination, agar with 5% sheep blood; assay type: cell-based; settings: Mueller Hinton agar containing 5% sheep blood
Protocol: (§1) Overnight grown cultures of Methicilin resistant Staphylococcus aureus 32 (MRSA 32), Methicilin resistant Staphylococcus epidermidis 118 (MRSE 118), Vancomycin resistant enterococci 303 (VRE 303) in Tryptic Soya broth were diluted in Mueller Hinton Broth to give optical density matching with MacFarland tube 0.5 standard. Cultures were further diluted 1:10 in Mueller Hinton broth. Using Denley's multipoint inoculator, 10^4 cells were deposited on Mueller Hinton agar (Difco) containing range of 2 fold dilutions of test compounds. These plates were incubated for 24 hrs at 35° C. and MIC results recorded. MIC is defined as minimum drug concentration that inhibits test organisms. For determining MIC of test compounds against Streptococcus pneumoniae 49619 (SPN 49619) and Streptococcus pyogenes 801 (SPY 801), Mueller Hinton agar containing 5% sheep blood was employed.

[2] = tested on: Streptococcus pneumoniae 49619 (SPN 49619); assay: as above; assay type: cell-based; settings: Mueller Hinton agar containing 5% sheep blood
Protocol: as §1

[3] = tested on: methicillin resistant Staphylococcus aureus strain MRSA 32; assay: Murine Assay Procedure (in vivo efficacy, MRSA 32 infection); settings: swiss mice infected intraperitoneally with MRSA 32, oral gavage 1 h after infection, repeat dose 3 hrs later, percentage survival on Day 7
Protocol: Oxazolidinone new chemical entities (NCEs) were evaluated for their in vivo efficacy in a murine infection caused by multi-drug resistant, methicillin resistant Staphylococcus aureus strain, referred to as MRSA 32, a clinical isolate obtained from a hospitalized patient. The procedure used for the murine assay is as follows:
Four weeks old swiss mice of 18-22 gm body weight were infected with MRSA 32 strain suspended in 5% Hog gastric mucin. The infecting dose of bacteria was set at 1-2×10^8 CFU/animal. The infecting dose was administered in 0.5 ml volume injected into peritonial cavity of mice. The treatment with oxazolidinone NCEs was started one hour after infection by administering 100-200 μl of the suspensions of oxazolidinone compounds in 5% Tween 80 by oral gavage. A repeat dose was similarly administered 3 hrs later. Each oxazolidinone NCE was tested at 2-3 different dosages in the range of 2.5 mg/kg to 20 mg/kg. In each dose group 6 mice were included. As an infection control group 12 mice were infected with MRSA 32 strain without giving any treatment. For compounds affording protection of MRSA infected mice, ED50 dosages were calculated on the basis of percentage survival on Day 7 after infection.

[4] = tested on: Methicilin resistant Staphylococcus aureus 32 (MRSA 32); assay: Minimum Inhibitory Concentration (MIC) determination, agar dilution; assay type: cell-based; settings: Mueller Hinton agar, 24 hrs at 35° C.
Protocol: as §1

[5] = tested on: Methicilin resistant Staphylococcus epidermidis 118 (MRSE 118); assay: as above; assay type: cell-based; settings: Mueller Hinton agar, 24 hrs at 35° C.
Protocol: as §1

[6] = tested on: Vancomycin resistant enterococci 303 (VRE 303); assay: as above; assay type: cell-based; settings: Enterococcus, Mueller Hinton agar, 24 hrs at 35° C.
Protocol: as §1

## CC(=O)NC[C@H]1CN(c2ccc(N3CCOCC3)c(F)c2)C(=O)O1 [Linezolid, reference compound]
[1]
  MIC: 2 mg/L (≈ 5.93 µM)
[2]
  MIC: 2 mg/L (≈ 5.93 µM)
[3]
  ED50: 5 mg/kg
[4]
  MIC: 2 mg/L (≈ 5.93 µM)
[5]
  MIC: 1 mg/L (≈ 2.96 µM)
[6]
  MIC: 2 mg/L (≈ 5.93 µM)

## CC(=S)NC[C@H]1CN(c2ccc(N3CCC(C#N)(Nc4ccc(C#N)cc4)CC3)c(F)c2)C(=O)O1 [Example 87, (S)—N-{3-[4-(4-(1-(4-Cyanophenylamino))-4-cyanopiperidin-1-yl)-3-fluorophenyl]-2-oxo-oxazolidin-5-ylmethyl}-thioacetamide]
[1]
  MIC: 0.8 mg/L (≈ 1.62 µM)
[2]
  MIC: 0.8 mg/L (≈ 1.62 µM)
[3]
  ED50: 10 mg/kg
[4]
  MIC: 1 mg/L (≈ 2.03 µM)
[5]
  MIC: 0.5 mg/L (≈ 1.02 µM)
[6]
  MIC: 0.4 mg/L (≈ 0.812 µM)

## CC(=O)NC[C@H]1CN(c2ccc(N3CCC(F)(F)CC3)c(F)c2)C(=O)O1 [Example 16, (S)—N-{3-[4-(4,4-Difluoropiperidin-1-yl)-3-fluorophenyl]-2-oxo-oxazolidin-5-ylmethyl}-acetamide]
[1]
  MIC: 2 mg/L (≈ 5.39 µM)
[2]
  MIC: 2 mg/L (≈ 5.39 µM)
[3]
  ED50: 5 mg/kg
[4]
  MIC: 2 mg/L (≈ 5.39 µM)
[5]
  MIC: 1 mg/L (≈ 2.69 µM)
[6]
  MIC: 2 mg/L (≈ 5.39 µM)

## CC(=O)NC[C@H]1CN(c2ccc(N3CCC4(CC3)C[C@@H]4C#N)c(F)c2)C(=O)O1 [Example 99, (1S,5S)—N-{3-[4-(1-cyano-6-aza-spiro[2.5]oct-6-yl)-3-fluorophenyl]-2-oxo-oxazolidin-5-ylmethyl}-acetamide]
[1]
  MIC: 0.5 mg/L (≈ 1.29 µM)
[2]
  MIC: 0.5 mg/L (≈ 1.29 µM)
[3]
  ED50: 5 mg/kg
[4]
  MIC: 2 mg/L (≈ 5.18 µM)
[5]
  MIC: 1 mg/L (≈ 2.59 µM)
[6]
  MIC: 2 mg/L (≈ 5.18 µM)

## CS(=O)(=O)OC[C@H]1CN(c2ccc(N3CCC(=O)CC3)c(F)c2)C(=O)O1 [Example 168, (R)—N-{3-[4-(4-oxo-piperidin-1-yl)-3-fluorophenyl]-2-oxo-oxazolidin-5-ylmethyl}-methanesulfonate]
[1]
  MIC: 4 mg/L (≈ 10.4 µM)
[2]
  MIC: 4 mg/L (≈ 10.4 µM)
[3]
  ED50: 10 mg/kg
[4]
  MIC: 4 mg/L (≈ 10.4 µM)
[5]
  MIC: 2 mg/L (≈ 5.18 µM)
[6]
  MIC: 4 mg/L (≈ 10.4 µM)

## CCOCC1(F)CCN(c2ccc(N3C[C@H](CNC(C)=O)OC3=O)cc2F)CC1 [Example 11, (S)—N-{3-[4-(4-Fluoro-4-ethoxymethylpiperidin-1-yl)-3-fluorophenyl]-2-oxo-oxazolidin-5-ylmethyl}-acetamide]
[1]
  MIC: 4 mg/L (≈ 9.72 µM)
[2]
  MIC: 2 mg/L (≈ 4.86 µM)
[3]
  ED50: 10 mg/kg
[4]
  MIC: 1 mg/L (≈ 2.43 µM)
[5]
  MIC: 0.5 mg/L (≈ 1.22 µM)
[6]
  MIC: 4 mg/L (≈ 9.72 µM)

## CC(=O)NC[C@H]1CN(c2ccc(N3CCC(O)(CN=[N+]=[N-])CC3)c(F)c2)C(=O)O1 [Example 25, (S)—N-{3-[4-(4-Azidomethyl-4-hydroxypiperidin-1-yl)-3-fluorophenyl]-2-oxo-oxazolidin-5-ylmethyl}-acetamide]
[1]
  MIC: 2 mg/L (≈ 4.92 µM)
[2]
  MIC: 2 mg/L (≈ 4.92 µM)
[3]
  ED50: 5 mg/kg
[4]
  MIC: 4 mg/L (≈ 9.84 µM)
[5]
  MIC: 1 mg/L (≈ 2.46 µM)
[6]
  MIC: 2 mg/L (≈ 4.92 µM)

## COCC1(O)CCN(c2ccc(N3C[C@H](CNC(C)=O)OC3=O)cc2)CC1 [Example 177, (S)—N-{3-[4-(4-methoxymethyl-4-hydroxy-piperidin-1-yl)-phenyl]-2-oxo-oxazolidin-5-ylmethyl}-acetamide]
[3]
  ED50: 10 mg/kg
[4]
  MIC: 8 mg/L (≈ 21.2 µM)
[5]
  MIC: 4 mg/L (≈ 10.6 µM)
[6]
  MIC: 8 mg/L (≈ 21.2 µM)

## CC(=O)NC[C@H]1CN(c2ccc(N3CCC4(CC3)CC4C#N)cc2)C(=O)O1 (mixture of isomers) [Example 96, (1RS,5S)—N-{3-[4-(1-cyano-6-aza-spiro[2.5]oct-6-yl)-phenyl]-2-oxo-oxazolidin-5-ylmethyl}-acetamide]
[1]
  MIC: 4 mg/L
[2]
  MIC: 4 mg/L
[3]
  ED50: 5 mg/kg
[4]
  MIC: 4 mg/L
[5]
  MIC: 2 mg/L
[6]
  MIC: 8 mg/L

## CC(=O)NC[C@H]1CN(c2ccc(N3CCC(F)(CC#N)CC3)c(F)c2)C(=O)O1 [Example 2, (S)—N-{3-[4-(4-Fluoro-4-cyanomethylpiperidin-1-yl)-3-fluorophenyl]-2-oxo-oxazolidin-5-ylmethyl}-acetamide]
[1]
  MIC: 1 mg/L (≈ 2.55 µM)
[2]
  MIC: 0.5 mg/L (≈ 1.27 µM)
[3]
  ED50: 2.5 mg/kg
[4]
  MIC: 1 mg/L (≈ 2.55 µM)
[5]
  MIC: 0.5 mg/L (≈ 1.27 µM)
[6]
  MIC: 1 mg/L (≈ 2.55 µM)

## CS(=O)(=O)OC[C@H]1CN(c2ccc(N3CCC4(CC3)COCO4)c(F)c2)C(=O)O1 [Example 129, (R)—N-{3-[4-(1,3-dioxa-8-aza-spiro[4.5]dec-8-yl)-3-fluorophenyl]-2-oxo-oxazolidin-5-ylmethyl}-methanesulfonate]
[1]
  MIC: 8 mg/L (≈ 18.6 µM)
[2]
  MIC: 8 mg/L (≈ 18.6 µM)
[3]
  ED50: 5 mg/kg
[4]
  MIC: 8 mg/L (≈ 18.6 µM)
[5]
  MIC: 4 mg/L (≈ 9.29 µM)
[6]
  MIC: 16 mg/L (≈ 37.2 µM)

## CC(=O)NC[C@H]1CN(c2ccc(N3CCC(O)(CN=[N+]=[N-])CC3)cc2)C(=O)O1 [Example 178, (S)—N-{3-[4-(4-azidomethyl-4-hydroxy-piperidin-1-yl)-phenyl]-2-oxo-oxazolidin-5-ylmethyl}-acetamide]
[1]
  MIC: 4 mg/L (≈ 10.3 µM)
[2]
  MIC: 4 mg/L (≈ 10.3 µM)
[3]
  ED50: 10 mg/kg
[4]
  MIC: 4 mg/L (≈ 10.3 µM)
[5]
  MIC: 2 mg/L (≈ 5.15 µM)
[6]
  MIC: 8 mg/L (≈ 20.6 µM)

## CC(=O)NC[C@H]1CN(c2cc(F)c(N3CCC4(CC3)OCCO4)c(F)c2)C(=O)O1 [Example 130, (S)—N-{3-[4-(1,4-dioxa-8-aza-spiro[4.5]dec-8-yl)-3,5-difluorophenyl]-2-oxo-oxazolidin-5-ylmethyl}-acetamide]
[1]
  MIC: 2 mg/L (≈ 4.86 µM)
[2]
  MIC: 2 mg/L (≈ 4.86 µM)
[3]
  ED50: 5 mg/kg
[4]
  MIC: 4 mg/L (≈ 9.72 µM)
[5]
  MIC: 2 mg/L (≈ 4.86 µM)
[6]
  MIC: 4 mg/L (≈ 9.72 µM)

## CS(=O)(=O)OC[C@H]1CN(c2cc(F)c(N3CCC(O)CC3)c(F)c2)C(=O)O1 [Example 173, (R)—N-{3-[4-(4-hydroxy-piperidin-1-yl)-3,5-difluorophenyl]-2-oxo-oxazolidin-5-ylmethyl}-methanesulfonate]
[1]
  MIC: 4 mg/L (≈ 9.84 µM)
[2]
  MIC: 2 mg/L (≈ 4.92 µM)
[3]
  ED50: 5 mg/kg
[4]
  MIC: 2 mg/L (≈ 4.92 µM)
[5]
  MIC: 2 mg/L (≈ 4.92 µM)
[6]
  MIC: 4 mg/L (≈ 9.84 µM)

## CC(=O)NC[C@H]1CN(c2ccc(N3CCC4(CC3)COCCCO4)c(F)c2)C(=O)O1 [Example 164]
[1]
  MIC: 4 mg/L (≈ 9.49 µM)
[2]
  MIC: 4 mg/L (≈ 9.49 µM)
[3]
  ED50: 10 mg/kg
[4]
  MIC: 4 mg/L (≈ 9.49 µM)
[5]
  MIC: 2 mg/L (≈ 4.75 µM)
[6]
  MIC: 8 mg/L (≈ 19 µM)

## CC(=O)NC[C@H]1CN(c2ccc(N3CCC(C)(F)CC3)c(F)c2)C(=O)O1 [Example 1, (S)—N-{3-[4-(4-Fluoro-4-methylpiperidin-1-yl)-3-fluorophenyl]-2-oxo-oxazolidin-5-ylmethyl}-acetamide]
[1]
  MIC: 2 mg/L (≈ 5.44 µM)
[2]
  MIC: 2 mg/L (≈ 5.44 µM)
[3]
  ED50: 10 mg/kg
[4]
  MIC: 4 mg/L (≈ 10.9 µM)
[5]
  MIC: 2 mg/L (≈ 5.44 µM)
[6]
  MIC: 4 mg/L (≈ 10.9 µM)

## CC(=O)NC[C@H]1CN(c2ccc(N3CCC4(CC3)NCC[S+]4[O-])c(F)c2)C(=O)O1 (stereo partly drawn) [Example 112, (S)—N-{3-[4-(4,8-diaza-1-sulfinyl-spiro[4.5]dec-8-yl)-3-fluorophenyl]-2-oxo-oxazolidin-5-ylmethyl}-acetamide]
[1]
  MIC: 2 mg/L (≈ 4.71 µM)
[2]
  MIC: 2 mg/L (≈ 4.71 µM)
[3]
  ED50: 10 mg/kg
[4]
  MIC: 4 mg/L (≈ 9.42 µM)
[5]
  MIC: 1 mg/L (≈ 2.36 µM)
[6]
  MIC: 2 mg/L (≈ 4.71 µM)

## CC(=O)NC[C@H]1CN(c2ccc(N3CCC4(CC3)C[S+]([O-])CCO4)c(F)c2)C(=O)O1 (stereo partly drawn) [Example 162, (S)—N-{3-[4-(1-oxa-4-sulfinyl-9-aza-spiro[5.5]undec-9-yl)-3-fluorophenyl]-2-oxo-oxazolidin-5-ylmethyl}-acetamide]
[1]
  MIC: 4 mg/L (≈ 9.1 µM)
[2]
  MIC: 4 mg/L (≈ 9.1 µM)
[3]
  ED50: 10 mg/kg
[4]
  MIC: 8 mg/L (≈ 18.2 µM)
